# Molecular target: T1, human IL-17AA (Homo sapiens, UniProt Q16552)
# T1 construct: host or cells: HEK (human embryonic kidney) cells
# T1 sequence (Q16552 24-155): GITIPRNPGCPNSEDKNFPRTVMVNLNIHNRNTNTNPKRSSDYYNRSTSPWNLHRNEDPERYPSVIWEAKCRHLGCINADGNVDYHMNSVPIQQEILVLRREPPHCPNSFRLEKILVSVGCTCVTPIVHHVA
# Experiment: IL-8 release assay in human epithelial keratinocytes adult (HEKa)
# Assay type: cell-based
# Details: HEKa cells, 3 ng/mL HEK-human IL-17AA + 10 ng/mL human TNFalpha; read-out: Rel EC50 IL-8 release assay
# Summary of the method: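 IL-8 release, quantified by HTRF and normalized to controls, reports IL-17 signaling in HEKa cells treated with compound plus final 3 ng/mL IL-17AA (HEK-derived) and 10 ng/mL TNF-alpha for 68-72 h; TNF-alpha-only wells set 100% inhibition. Four-parameter logistic fits (r^2>0.9) give relative IC50 and Emax; PrestoBlue flags cytotoxicity.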
row,Compound,EC50 [nM]
1,"Cc1n[nH]c(C)c1-c1ccc(NC(=O)[C@@H](NC(=O)c2ccnn2C(C)C)[C@H]2CCOc3ccc(F)cc32)cc1 [Example 289, N-[(1S)-2-[4-(3,5-dimethyl-1H-pyrazol-4-N yl)anilino]-1-[(4S)-6-fluorochroman-4-yl]-2-oxo-ethyl]-2-isopropyl-pyrazole-3-carboxamide]",< 100
2,"CCc1nocc1C(=O)N[C@H](C(=O)Nc1ccc(-c2c(C)n[nH]c2C)cc1)C(C1CC1)C1CC1 [Example 290, N-[(1S)-1-(dicyclopropylmethyl)-2-[4-(3,5-dimethyl-1H-pyrazol-4-yl)anilino]-2-oxo-ethyl]-3-ethyl-isoxazole-4-carboxamide]",< 100
3,"Cc1n[nH]c(C)c1-c1ccc(NC(=O)[C@@H](NC(=O)c2conc2C(C)C)C(C2CC2)C2CC2)cc1 [Example 291, N-[(1S)-1-(dicyclopropylmethyl)-2-[4-(3,5-dimethyl-1H-pyrazol-4-yl)anilino]-2-oxo-ethyl]-3-isopropyl-isoxazole-4-carboxamide]",< 100
4,"Cc1n[nH]c(C)c1-c1ccc(NC(=O)[C@@H](NC(=O)c2cnnn2C(C)C)C(C2CC2)C2CC2)cc1 [Example 292, N-[(1S)-1-(dicyclopropylmethyl)-2-[4-(3,5-dimethyl-1H-pyrazol-4-yl)anilino]-2-oxo-ethyl]-3-isopropyl-triazole-4-carboxamide]",< 100
5,"Cc1n[nH]c(C)c1-c1ccc(NC(=O)[C@@H](NC(=O)c2cnc3ccccn23)C2CCCCC2)cc1 [Example 293, N-[(1S)-1-cyclohexyl-2-[4-(3,5-dimethyl-1H-pyrazol-4-yl)anilino]-2-oxo-ethyl]imidazo[1,2-a]pyridine-3-carboxamide]",100 to 1000
6,"Cc1n[nH]c(C)c1-c1ccc(NC(=O)C(NC(=O)c2ccnn2C(C)C)C(C2CC(F)(F)C2)C2CC(F)(F)C2)cc1 (stereo not shown) [Example 295, N-[1-[bis(3,3-difluorocyclobutyl)methyl]-2-[4-(3,5-dimethyl-1H-pyrazol-4-yl)anilino]-2-oxo-ethyl]-2-isopropyl-pyrazole-3-carboxamide]",100 to 1000
7,Cc1n[nH]c(C)c1-c1ccc(NC(=O)[C@H](CC(C)C)NC(=O)c2ccnn2C)cc1 [Example 298],> 1000
8,"Cc1ncn(C)c1-c1ccc(NC(=O)C(NC(=O)c2ccnn2C)C(C2CC2)C2CC2)cc1 (stereo not shown) [Example 332, N-[1-(dicyclopropylmethyl)-2-[4-(3,5-dimethylimidazol-4-yl)anilino]-2-oxo-ethyl]-2-methyl-pyrazole-3-carboxamide]",100 to 1000
9,"Cc1ncn(C)c1-c1ccc(NC(=O)[C@@H](NC(=O)c2ccnn2C)C2CCCC2)cc1 [Example 335, N-[(1S)-1-cyclopentyl-2-[4-(3,5-dimethylimidazol-4-yl)anilino]-2-oxo-ethyl]-2-methyl-pyrazole-3-carboxamide]",> 1000
10,"Cc1ncn(C)c1-c1ccc(NC(=O)[C@@H](NC(=O)c2ccnn2C)C2CCCCCC2)cc1 [Example 336, N-[(1S)-1-cycloheptyl-2-[4-(3,5-dimethylimidazol-4-yl)anilino]-2-oxo-ethyl]-2-methyl-pyrazole-3-carboxamide]",100 to 1000
11,"Cc1ncn(C)c1-c1ccc(NC(=O)[C@@H](NC(=O)c2ccnn2C)C2CCCCC2)cc1 [Example 337, N-[(1S)-1-cyclohexyl-2-[4-(3,5-dimethylimidazol-4-yl)anilino]-2-oxo-ethyl]-2-methyl-pyrazole-3-carboxamide]",100 to 1000
12,"CC(C)n1nccc1C(=O)N[C@H](C(=O)Nc1ccc(-c2nncn2C)cc1)C1CCCCCC1 [Example 349, N-[(1S)-1-cycloheptyl-2-[4-(4-methyl-1,2,4-triazol-3-yl)anilino]-2-oxo-ethyl]-2-isopropyl-pyrazole-3-carboxamide]",100 to 1000
13,"Cn1cnnc1-c1ccc(NC(=O)[C@@H](NC(=O)c2ccnn2C)C2CCCCCC2)cc1 [Example 350, N-[(1S)-1-cycloheptyl-2-[4-(4-methyl-1,2,4-triazol-3-yl)anilino]-2-oxo-ethyl]-2-methyl-pyrazole-3-carboxamide]",> 1000
14,"CC(C)n1nccc1C(=O)N[C@H](C(=O)Nc1ccc(-c2nncn2C)cc1)C1CCCCC1 [Example 351, N-[(1S)-1-cyclohexyl-2-[4-(4-methyl-1,2,4-triazol-3-yl)anilino]-2-oxo-ethyl]-2-isopropyl-pyrazole-3-carboxamide]",100 to 1000
15,"Cn1cnnc1-c1ccc(NC(=O)[C@@H](NC(=O)c2ccnn2C)C2CCCCC2)cc1 [Example 352, N-[(1S)-1-cyclohexyl-2-[4-(4-methyl-1,2,4-triazol-3-yl)anilino]-2-oxo-ethyl]-2-methyl-pyrazole-3-carboxamide]",> 1000
16,"COc1n[nH]c(C)c1-c1ccc(NC(=O)[C@@H](NC(=O)c2ccnn2C)C2CCCCC2)cc1 [Example 358, N-[(1S)-1-cyclohexyl-2-[4-(5-methoxy-3-methyl-1H-pyrazol-4-yl)anilino]-2-oxo-ethyl]-2-methyl-pyrazole-3-carboxamide]",> 1000
17,"CCOc1n[nH]c(C)c1-c1ccc(NC(=O)[C@@H](NC(=O)c2ccnn2C)C2CCCCC2)cc1 [Example 359, N-[(1S)-1-cyclohexyl-2-[4-(5-ethoxy-3-methyl-1H-pyrazol-4-yl)anilino]-2-oxo-ethyl]-2-methyl-pyrazole-3-carboxamide]",100 to 1000

# Other lines, results leading:
row,EC50 [nM],Compound
1,> 1000,"Cc1n[nH]c(C)c1-c1ccc(NC(=O)[C@@H](Cc2ccccc2)NC(=O)c2ccnn2C)cc1 [Example 297, N-[(1R)-1-benzyl-2-[4-(3,5-dimethyl-1H-pyrazol-4-yl)anilino]-2-oxo-ethyl]-2-methyl-pyrazole-3-carboxamide]"
2,> 1000,"Cn1cncc1-c1ccc(NC(=O)[C@H](Cc2cc(C#N)ccc2Cl)NC(=O)OC(C)(C)C)cc1 [Example 307, tert-butyl N-[(1S)-1-[(2-chloro-5-cyano-phenyl)methyl]-2-[4-(3-methylimidazol-4-yl)anilino]-2-oxo-ethyl]carbamate]"
3,100 to 1000,"Cc1ncn(C)c1-c1ccc(NC(=O)[C@@H](NC(=O)c2ccnn2C)C(c2ccccc2)c2ccccc2)cc1 [Example 338, N-[(1S)-1-benzhydryl-2-[4-(3,5-dimethylimidazol-4-yl)anilino]-2-oxo-ethyl]-2-methyl-pyrazole-3-carboxamide]"
4,> 1000,"Cn1cncc1-c1ccc(NC(=O)[C@@H](NC(=O)c2ccnn2C)[C@@H]2CCc3ccc(Br)cc32)cc1 [Example 340, N-[(1S)-1-[(1R)-6-bromoindan-1-yl]-2-[4-(3-methylimidazol-4-yl)anilino]-2-oxo-ethyl]-2-methyl-pyrazole-3-carboxamide]"
5,100 to 1000,"Cn1cncc1-c1ccc(NC(=O)[C@@H](NC(=O)c2ccnn2C)[C@H]2CCc3ccc(Br)cc32)cc1 [Example 341, N-[(1S)-1-[(1S)-6-bromoindan-1-yl]-2-[4-(3-methylimidazol-4-yl)anilino]-2-oxo-ethyl]-2-methyl-pyrazole-3-carboxamide]"
6,> 1000,"Cn1cncc1-c1ccc(NC(=O)[C@H](Cc2cc(C#N)ccc2Cl)NC(=O)c2ccnn2C)cc1 [Example 342, N-[(1S)-1-[(2-chloro-5-cyano-phenyl)methyl]-2-[4-(3-methylimidazol-4-yl)anilino]-2-oxo-ethyl]-2-methyl-pyrazole-3-carboxamide]"
7,> 1000,"Cn1cncc1-c1ccc(NC(=O)[C@@H](NC(=O)c2ccnn2C)C2CCCCC2)cc1 [Example 343, N-[(1S)-1-cyclohexyl-2-[4-(3-methylimidazol-4-yl)anilino]-2-oxo-ethyl]-2-methyl-pyrazole-3-carboxamide]"
8,> 1000,"Cn1cncc1-c1ccc(NC(=O)[C@@H](NC(=O)c2ccnn2C)[C@@H]2CCCc3ccc(Br)cc32)cc1 [Example 344, N-[(1S)-1-[(1R)-7-bromotetralin-1-yl]-2-[4-(3-methylimidazol-4-yl)anilino]-2-oxo-ethyl]-2-methyl-pyrazole-3-carboxamide]"
9,100 to 1000,"Cn1cncc1-c1ccc(NC(=O)[C@H](Cc2cc(Br)ccc2Cl)NC(=O)c2ccnn2C)cc1 [Example 345, N-[(1S)-1-[(5-bromo-2-chloro-phenyl)methyl]-2-[4-(3-methylimidazol-4-yl)anilino]-2-oxo-ethyl]-2-methyl-pyrazole-3-carboxamide]"
10,100 to 1000,"Cn1cncc1-c1ccc(NC(=O)[C@@H](NC(=O)c2ccnn2C)C(c2ccccc2)c2ccccc2)cc1 [Example 346, N-[(1S)-1-benzhydryl-2-[4-(3-methylimidazol-4-yl)anilino]-2-oxo-ethyl]-2-methyl-pyrazole-3-carboxamide]"
11,100 to 1000,"Cn1cncc1-c1ccc(NC(=O)[C@@H](NC(=O)C2(F)CC2)C(c2ccccc2)c2ccccc2)cc1 [Example 347, N-[(1S)-1-benzhydryl-2-[4-(3-methylimidazol-4-yl)anilino]-2-oxo-ethyl]-1-fluoro-cyclopropanecarboxamide]"
12,> 1000,"Cn1cnnc1-c1ccc(NC(=O)[C@@H](NC(=O)c2cnnn2-c2ccccc2)C2CCCCC2)cc1 [Example 348, N-[(1S)-1-cyclohexyl-2-[4-(4-methyl-1,2,4-triazol-3-yl)anilino]-2-oxo-ethyl]-3-phenyl-triazole-4-carboxamide]"
13,> 1000,"Cn1cnnc1-c1ccc(NC(=O)[C@@H](NC(=O)C2(F)CC2)C(c2ccccc2)c2ccccc2)cc1 [Example 353, N-[(1S)-1-benzhydryl-2-[4-(4-methyl-1,2,4-triazol-3-yl)anilino]-2-oxo-ethyl]-1-fluoro-cyclopropanecarboxamide]"
14,> 1000,"Cn1cnnc1-c1ccc(NC(=O)[C@@H](NC(=O)c2ccnn2C)C(c2ccccc2)c2ccccc2)cc1 [Example 354, N-[(1S)-1-benzhydryl-2-[4-(4-methyl-1,2,4-triazol-3-yl)anilino]-2-oxo-ethyl]-2-methyl-pyrazole-3-carboxamide]"

# Source: US11377425B1, “Small molecule modulators of IL-17” (LEO Pharma A/S, priority 2018, dated 2022)
